The results in this text go back to US9493466B2, “Treatment of cancer with TOR kinase inhibitors” (Signal Pharmaceuticals, LLC, priority 2011, dated 2016).

In one assay the test system is HCC1954. Nature of the assay: Growth inhibition assay for breast cancer. Conditions: HCC1954 (Basal, Her2+), 96 hours. It counts as cell-based. From the text:
Growth Inhibition Assay for Breast Cancer (BC) (Compound 1). All breast cancer cell lines were maintained and tested in appropriate culture media. The seeding density for each cell line was optimized to ensure assay linearity in 384-well plates.
Increasing concentrations of Compound 1 were spotted via an acoustic dispenser (EDC ATS-100) into an empty 384-well plate. Compound 1 was spotted in a 10-point serial dilution fashion (3-fold dilution) in duplicate within the plate. The dimethyl sulfoxide (DMSO) concentration was kept constant for a final assay concentration of 0.1% DMSO. Plates were replicated for use against different cell lines and testing periods. After compound plate replication, all plates were sealed (Agilent ThermoLoc) and stored at −20° C. for up to 1 month. When ready for testing, plates were removed from the freezer, thawed, and unsealed just prior to the addition of the test cell.
Prior to testing, cells were grown and expanded in culture flasks to provide sufficient amounts of starting material. Cells were then diluted to their desired densities and added directly to the Compound 1-spotted 384-well plates. Cells were allowed to grow for 96 hours at 37° C./5% CO2. At the time of setup (t0), initial cell number was assessed via a viability assay (Cell Titer-Glo) and read for luminescence. After 96 hours, cell viability of Compound 1-treated cells was assessed via Cell Titer-Glo and read for luminescence.
Cell lines were assayed for growth inhibition by Compound 1 for at least two independent tests. All data was normalized and represented as a percentage of the DMSO-treated control cells. […] The potency of Compound 1 in different subtypes of breast cancer cell lines is shown in FIG. 7A, while the correlation of Compound 1 sensitivity to ER, HER, PIK3CA, and TP53 status is shown in FIG. 7B.

The next assay has as its system NCI-H1395. Nature of the assay: Cell viability assay for NSCLC lines. The settings on record: NCI-H1395, 3 days. It counts as cell-based, human. Here is the method:
(§1) Cell Viability Assay for NSCLC Lines. Cell viability was assessed using the Cell Titer-Glo Luminescent Cell Viability from Promega. The assay is a homogenous method of determining the number of viable cells in culture based on quantitation of the adenosine triphosphate (ATP) present, an indicator of metabolically active cells. The homogenous assay procedure involves adding the single reagent (CellTiter-Glo Reagent) directly to cells cultured in serum-supplemented medium. Cells were plated into a 96-well flat bottom plate (Costar Catalog Number 33595) at densities that were previously optimized for each cell line. The cells were incubated overnight in 5% CO2 at 37° C. The following day, compound dilutions were prepared and all concentrations were assayed in triplicate. The cells were incubated with Compound 1 (0.03 μM, 0.1 μM, 0.3 μM, 1 μM, 3 μM, 10 μM and 30 μM for NSCLC cells) in 5% CO2 at 37° C. for 3 days. After a 3-day incubation period, 100 μL of CellTiter-Glo reagent was added to each well for 2 minutes with shaking and further incubated for 10 minutes (no shaking) at room temperature to stabilize the signal. The luminescence was measured on the VICTOR X2 multilabel plate reader. The percent growth inhibition was calculated using the DMSO control in the same plate (no compound) response as 100% cell growth. The average values from triplicates were plotted to obtain IC50 values using software XLfit from IDBS. The formula used for determining IC50 in XLfit was model number 205, which utilizes a 4 Parameter Logistic Model or Sigmoidal Dose-Response Model to calculate the IC50 values. All IC50 values are reported as an average from either two independent experiments or a single experiment.

In another assay the test system is NCI-H1703. Put plainly: Cell viability assay for NSCLC lines. The settings on record: NCI-H1703, 3 days. It counts as cell-based, human. Here is the method:
as §1

The next assay concerns NCI-H1734. Nature of the assay: Cell viability assay for NSCLC lines. In kind it is cell-based, human. The settings on record: NCI-H1734, 3 days. Here is the method: as §1
Another assay has as its system NCI-H1755. Put plainly: Cell viability assay for NSCLC lines. The settings on record: NCI-H1755, 3 days. It counts as cell-based, human. On the procedure: as §1
Another assay deals with NCI-H2030. Put plainly: Cell viability assay for NSCLC lines. In kind it is cell-based, human. Conditions: NCI-H2030, 3 days. On the procedure:
as §1

A further assay relates to NCI-H727. Put plainly: Cell viability assay for NSCLC lines. It counts as cell-based, human. Conditions: NCI-H727, 3 days. Here is the method: as §1
For the next assay, the system named is NCI-H1563. Put plainly: Cell viability assay for NSCLC lines. The settings on record: NCI-H1563, 3 days. In kind it is cell-based, human. On the procedure:
as §1

The subject of the next assay is NCI-H596. Put plainly: Cell viability assay for NSCLC lines. The settings on record: NCI-H596, 3 days. It counts as cell-based, human. On the procedure: as §1
The next assay concerns NCI-H2009. Nature of the assay: Cell viability assay for NSCLC lines. The settings on record: NCI-H2009, 3 days. In kind it is cell-based, human. Here is the method:
as §1

For another assay, the system named is NCI-H1975. Nature of the assay: Cell viability assay for NSCLC lines. It counts as cell-based, human. The settings on record: NCI-H1975, 3 days. Here is the method:
as §1

Another assay relates to NCI-H1568. Nature of the assay: Cell viability assay for NSCLC lines. It counts as cell-based, human. The settings on record: NCI-H1568, 3 days. On the procedure:
as §1

The test system of the next assay is NCI-H650. Put plainly: Cell viability assay for NSCLC lines. Conditions: NCI-H650, 3 days. It counts as cell-based, human. Here is the method:
as §1

The next assay deals with NCI-H520. Nature of the assay: Cell viability assay for NSCLC lines. In kind it is cell-based, human. The settings on record: NCI-H520, 3 days. On the procedure: as §1
For another assay, the system named is NCI-H1838. Put plainly: Cell viability assay for NSCLC lines. Conditions: NCI-H1838, 3 days. It counts as cell-based, human. Here is the method:
as §1

In the next assay the test system is NCI-H2228. Nature of the assay: Cell viability assay for NSCLC lines. It counts as cell-based, human. Conditions: NCI-H2228, 3 days. Here is the method: as §1
Another assay deals with NCI-H549. Nature of the assay: Cell viability assay for NSCLC lines. It counts as cell-based, human. Conditions: NCI-H549, 3 days. On the procedure: as §1
The next assay deals with NCI-H2291. Put plainly: Cell viability assay for NSCLC lines. In kind it is cell-based, human. Conditions: NCI-H2291, 3 days. On the procedure:
as §1

For the next assay, the system named is Calu-1. Nature of the assay: Cell viability assay for NSCLC lines. It counts as cell-based, human. The settings on record: Calu-1, 3 days. Here is the method: as §1
The subject of assay [1] is NSCLC primary tumor grafts. Nature of the assay: Low passage tumorgraft models of NSCLC. The settings on record: 1, 5 and 10 mg/kg once daily for 28 days. It counts as in vivo, immunocompromised mice. On the procedure:
In Vivo Evaluation of Compound 1 in Low Passage Tumorgraft Models of Non-Small Cell Lung Cancer (NSCLC). The objective of the study was to evaluate the single agent efficacy of Compound 1 in non-small cell lung cancer (NCSLC) models. The antitumor activity of Compound 1 was evaluated in low passage non-small cell lung cancer (NSCLC) tumorgraft models. The tumorgrafts were developed by directly implanting the human tumor fragments into immunocompromised mice and then subsequently passaged in vivo. The tumors from these primary tumorgrafts have preserved biological and morphological characteristics of the original human tumors. The antitumor activity of Compound 1 was evaluated at three dose levels (1, 5 and 10 mg/kg) with once daily dosing for 28 days. During the course of the study antitumor activity was evaluated by measuring the tumors.

A word on the GI50: it is the concentration at which growth is held to half of that of the control. A higher GI50 goes with lower sensitivity of the cells. Broadly, the IC50 is the concentration that gives 50% inhibition. Higher therefore signals weaker potency in that assay.

SMILES strings stand for the structures. “And” between values parts separate entries of the source, which are not always exact repeats. Equal values may be shown once.

Turning to `CO[C@H]1CC[C@H](N2C(=O)CNc3ncc(-c4ccc(C(C)(C)O)nc4)nc32)CC1` [Compound 1, 7-(6-(2-hydroxypropan-2-yl)pyridin-3-yl)-1-((1r,4r)-4-methoxycyclohexyl)-3,4-dihydropyrazino-[2,3-b]pyrazin-2(1H)-one], in the assay with HCC1954, it took 0.197 µM to inhibit growth by half (GI50). The IC50 in the assay on NCI-H1395 came out at 0.6 µM; in the assay on NCI-H1703 it was 0.92 µM; in the assay on NCI-H1734, 1.55 µM; in the assay on NCI-H1755 it was 3.03 µM; in the assay with NCI-H2030, 2.23 µM; in the assay with NCI-H727 it was 0.288 µM. In addition, the IC50 is over 30 µM with NCI-H1563; 2.2 µM in the assay with NCI-H596; 26 µM in the assay with NCI-H2009; 0.96 µM with NCI-H1975; 0.226 µM in the assay on NCI-H1568; over 30 µM with NCI-H650. Besides, the IC50 in the assay on NCI-H520 was 0.499 µM and 0.5 µM; in the assay with NCI-H1838, over 30 µM; in the assay on NCI-H2228, 0.264 µM; with NCI-H549 it was 0.77 µM; in the assay with NCI-H2291, over 30 µM; with Calu-1, 4.74 µM. Further, the “growth of tumor grafts” value in [1] is “significantly inhibited”.
